{
  "source": "patent US20090098652A1",
  "about": "“SELF ASSEMBLING PEPTIDE SYSTEMS AND METHODS” (Northwestern University, priority 2007, published 2009)",
  "key": {"[1]": {"system": "P19 cells", "settings": "flow cytometry; all tested concentrations", "experimental": "In experiments conducted during development of embodiments of the present invention, P19 cells in suspension were allowed to form aggregates for four days and were then cultured with the histidine hexamer PA, with sequence [sequence]-palmitoyl for two weeks. […] P19 cells were allowed to form aggregates for seven days and then cultured with the DNA-PA complexes."}, "[2]": {"system": "P19 cells in suspension aggregates", "assay": "Transfection of P19 suspension aggregates with GFP plasmid, read by qPCR and Western blot", "type": "cell-based", "settings": "comparison of PA system, peptide and Lipofectamine", "source_text": "In the figure, “peptide amphiphile” is the DNA-binding PA with sequence […](N^ε-palmitoyl) and “peptide” is a peptide with sequence […].\nIn some embodiments, the invention described here improves on this system by incorporating one or more peptides which are bioactive and direct the complex to the nucleus. It is designed, in some embodiments, to form an alpha helix which binds to the major groove of the double helix of DNA. In addition, it is a self-assembling peptide amphiphile (PA) which forms high aspect ratio nanostructures. When complexed with DNA, these nanostructures are, on average, smaller than the nanostructures produced by LIPOFECAMINE as determined by dynamic light scattering. The present invention is not limited to a particular mechanism. Indeed, an understanding of the mechanism is not necessary to practice the present invention. Nonetheless, it is contemplated that the system works by complexing and condensing the DNA through specific binding to the major groove and electrostatic screening. This DNA-PA complex is similar to the LIPOFECTAMINE complex, however it includes a peptide region containing a nuclear localization signal which directs the cell to move this complex through the cytoplasm and into the nucleus where the genes encoded in the DNA are subsequently expressed. […]"}},
  "note": "Where a SMILES comes first, the peptide text is derived from it. The star is where a group is joined. Palmitoyl = CCCCCCCCCCCCCCCC(=O)*",
  "data": [
    {"compound": "CCCCCCCCCCCCCCCC(=O)NCCCC[C@H](NC(=O)[C@H](C)NC(=O)[C@H](C)NC(=O)[C@H](C)NC(=O)[C@H](CC(C)C)NC(=O)[C@H](CC(C)C)NC(=O)[C@H](CC(C)C)NC(=O)[C@H](CCCCN)NC(=O)[C@H](CC(N)=O)NC(=O)[C@@H](NC(=O)[C@H](C)NC(=O)[C@H](CO)NC(=O)[C@H](CCC(N)=O)NC(=O)[C@H](Cc1ccc(O)cc1)NC(=O)[C@@H](NC(=O)CNC(=O)[C@H](CC(C)C)NC(=O)[C@H](CCCNC(=N)N)NC(=O)[C@H](CCCCN)NC(=O)[C@H](C)NC(=O)[C@@H](NC(=O)[C@H](CCCCN)NC(=O)[C@@H](N)CCCNC(=N)N)[C@@H](C)O)C(C)C)[C@@H](C)CC)C(=O)O", "note": "[DNA-binding PA] (H-RKTAKRLGVYQSAINKLLLAAAK(Palmitoyl)-OH)", "values": [
      {"measurement": "toxicity to P19 cells", "setting": "[1]", "result": "nontoxic"}
    ]},
    {"compound": "RKTAKRLGVYQSAINK [peptide]", "values": [
      {"measurement": "transfection efficiency (in words)", "setting": "[2]", "result": "lower transfection efficiency"},
      {"measurement": "transfection efficiency (in words)", "setting": "[2]; listed as peptide control", "result": "poor results compared to both the lipofectamine system and the PA system"}
    ]}
  ]
}
